Active and inactive are the calls of the source.
Key:
[1] = biological target: T1, Sentrin-specific protease 8 (Homo sapiens, UniProt Q96LD8); test: inhibition of human SENP8 cleavage activity – biochemical, luminescence, SAR follow-up (AID 504501); format: functional
T1 sequence (Q96LD8 whole entry): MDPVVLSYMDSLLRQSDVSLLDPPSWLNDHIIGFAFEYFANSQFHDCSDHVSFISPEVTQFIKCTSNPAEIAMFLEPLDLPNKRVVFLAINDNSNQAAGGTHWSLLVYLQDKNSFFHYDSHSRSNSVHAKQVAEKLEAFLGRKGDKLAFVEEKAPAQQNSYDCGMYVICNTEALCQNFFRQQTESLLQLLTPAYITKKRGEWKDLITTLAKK

[2] = biological target: T2, Caspase-3 (Homo sapiens, UniProt P42574); test: SAR Analysis of small molecule inhibitors of Sentrin-specific proteases (SENPs) using a Caspase-3 Selectivity assay. [Related pubchem assays (depositor defined):AID2540, AID2599, AID434973, AID489001]; format: functional
T2 sequence (P42574 whole entry): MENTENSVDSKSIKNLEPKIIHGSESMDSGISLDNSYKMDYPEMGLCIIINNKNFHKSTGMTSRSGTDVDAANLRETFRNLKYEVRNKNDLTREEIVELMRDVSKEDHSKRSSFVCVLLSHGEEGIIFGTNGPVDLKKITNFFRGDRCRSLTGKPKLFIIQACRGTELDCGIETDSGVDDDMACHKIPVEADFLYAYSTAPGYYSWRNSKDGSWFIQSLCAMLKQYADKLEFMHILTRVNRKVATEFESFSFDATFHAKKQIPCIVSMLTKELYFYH

[3] = biological target: T3, Sentrin-specific protease 6 (Homo sapiens, UniProt Q9GZR1); test: SAR Analysis of small molecule inhibitors of Sentrin-specific protease 6 (SENP6) using a Luminescent assay. [Related pubchem assays (depositor defined):AID2582, AID2599]; format: functional
T3 sequence (Q9GZR1 whole entry): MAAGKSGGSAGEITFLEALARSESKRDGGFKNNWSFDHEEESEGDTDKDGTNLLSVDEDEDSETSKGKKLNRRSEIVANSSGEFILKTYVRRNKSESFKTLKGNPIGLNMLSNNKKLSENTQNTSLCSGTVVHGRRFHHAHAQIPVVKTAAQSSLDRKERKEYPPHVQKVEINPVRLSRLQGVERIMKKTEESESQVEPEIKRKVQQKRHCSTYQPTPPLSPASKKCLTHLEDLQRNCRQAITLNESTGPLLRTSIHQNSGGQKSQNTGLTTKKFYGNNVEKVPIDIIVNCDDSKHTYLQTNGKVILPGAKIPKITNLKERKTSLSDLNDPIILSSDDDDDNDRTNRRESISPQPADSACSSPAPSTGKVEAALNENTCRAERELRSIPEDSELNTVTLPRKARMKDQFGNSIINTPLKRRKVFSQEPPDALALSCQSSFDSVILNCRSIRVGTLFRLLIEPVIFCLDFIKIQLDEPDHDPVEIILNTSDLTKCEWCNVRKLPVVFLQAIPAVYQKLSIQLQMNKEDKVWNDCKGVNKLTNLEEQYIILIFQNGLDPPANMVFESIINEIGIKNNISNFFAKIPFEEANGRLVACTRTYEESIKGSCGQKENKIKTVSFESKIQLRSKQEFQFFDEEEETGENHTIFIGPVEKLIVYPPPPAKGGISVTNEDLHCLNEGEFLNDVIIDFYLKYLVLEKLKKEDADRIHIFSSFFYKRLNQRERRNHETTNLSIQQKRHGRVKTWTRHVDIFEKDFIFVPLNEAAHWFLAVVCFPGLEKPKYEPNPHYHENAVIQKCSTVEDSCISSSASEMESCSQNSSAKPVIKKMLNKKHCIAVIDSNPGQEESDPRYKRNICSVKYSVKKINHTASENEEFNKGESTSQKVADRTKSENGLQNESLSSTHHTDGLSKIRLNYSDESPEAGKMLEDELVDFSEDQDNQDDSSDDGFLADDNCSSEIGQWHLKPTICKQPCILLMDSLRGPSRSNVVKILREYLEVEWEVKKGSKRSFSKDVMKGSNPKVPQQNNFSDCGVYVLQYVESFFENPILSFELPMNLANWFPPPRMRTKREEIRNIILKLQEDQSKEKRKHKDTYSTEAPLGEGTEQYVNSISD

[4] = biological target: T4, Sentrin-specific protease 7 (Homo sapiens, UniProt Q9BQF6); test: inhibition of human SENP7 cleavage activity – biochemical, luminescence, SAR follow-up (AID 504497); format: functional
T4 sequence (Q9BQF6 whole entry): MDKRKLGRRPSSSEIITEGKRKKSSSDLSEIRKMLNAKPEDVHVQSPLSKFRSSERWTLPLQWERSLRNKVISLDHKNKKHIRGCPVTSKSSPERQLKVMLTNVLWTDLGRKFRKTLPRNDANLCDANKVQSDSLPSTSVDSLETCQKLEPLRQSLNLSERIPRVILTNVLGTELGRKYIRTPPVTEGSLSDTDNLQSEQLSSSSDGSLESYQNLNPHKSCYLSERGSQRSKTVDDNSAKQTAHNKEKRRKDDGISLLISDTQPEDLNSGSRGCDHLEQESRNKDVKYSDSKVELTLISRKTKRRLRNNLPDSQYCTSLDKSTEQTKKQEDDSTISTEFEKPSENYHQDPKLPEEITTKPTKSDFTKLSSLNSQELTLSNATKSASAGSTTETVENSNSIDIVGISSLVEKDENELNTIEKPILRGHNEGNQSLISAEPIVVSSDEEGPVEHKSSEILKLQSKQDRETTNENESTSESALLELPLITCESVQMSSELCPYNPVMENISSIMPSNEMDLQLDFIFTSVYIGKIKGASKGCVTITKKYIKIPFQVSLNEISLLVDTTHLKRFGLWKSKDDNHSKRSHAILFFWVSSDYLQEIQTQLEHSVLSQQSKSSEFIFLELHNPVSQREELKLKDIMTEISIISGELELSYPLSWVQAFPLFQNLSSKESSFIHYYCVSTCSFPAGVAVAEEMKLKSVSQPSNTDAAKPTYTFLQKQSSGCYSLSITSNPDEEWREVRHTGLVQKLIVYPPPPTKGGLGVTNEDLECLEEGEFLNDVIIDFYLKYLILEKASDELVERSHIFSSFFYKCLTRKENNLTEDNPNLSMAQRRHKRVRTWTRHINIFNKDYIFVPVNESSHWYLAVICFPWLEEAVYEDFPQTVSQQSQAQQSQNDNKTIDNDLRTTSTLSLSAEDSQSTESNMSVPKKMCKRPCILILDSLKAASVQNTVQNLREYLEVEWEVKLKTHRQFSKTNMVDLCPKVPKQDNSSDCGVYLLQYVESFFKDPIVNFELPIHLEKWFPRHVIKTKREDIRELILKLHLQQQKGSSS

[5] = Trypanosoma cruzi growth suppression in host cells – NIH3T3 host cells, beta-gal luminescence, confirmation (AID 2044); format: functional, cell-based;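 further: intracellular parasites grown in NIH/3T3 mouse fibroblasts as host cells; luminescent beta-galactosidase reporter signal from transgenic T. cruzi replicating inside host cells; inhibitors lower the luminescence signal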
[6] = NIH3T3 cell viability loss – ATP luminescence, mouse fibroblasts, counter-screen, dose response (AID 2010); format: functional, cell-based;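 further: cells exposed to compound for about 90 hours before reading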
[7] = biological target: Melanocortin receptor 4 (Homo sapiens, UniProt P32245); test: inhibitors of MC4R cAMP signaling – cell-based, TR-FRET, biased antagonists, dose response (AID 602298); format: functional;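 further: antagonist potency against agonist-stimulated cAMP production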
[8] = cAMP pathway inhibition in counterscreen cell line – TR-FRET cAMP detection, counter-screen for MC4R biased antagonist project, dose response (AID 602305); format: functional, cell-based;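 further: U2OS cells stimulated with forskolin near its EC80 as the cAMP inducer; potency is for inhibition of forskolin-stimulated cAMP signaling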
[9] = cells; format: functional, cell-based
[10] = cells; format: functional, cell-based; remark: listed apart in the source
[11] = biological target: T5, Insulin-degrading enzyme (Homo sapiens, UniProt P14735); test: recombinant IDE activation, cell-free – biochemical, fluorescence polarization, counter-screen for IDE activator project, dose response (AID 588681)
[12] = biological target: T5, Insulin-degrading enzyme; test: cellular IDE activation of Abeta substrate cleavage – fluorescence polarization, HEK cells, dose response (AID 588439); format: functional, cell-based
[13] = test system: HEK293; test: membrane integrity loss in HEK cells – cell-based, fluorescence, cytotoxicity control for IDE activator project, dose response (AID 588440); format: functional; settings: Homo sapiens;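 further: cytotoxicity by LDH release measuring loss of membrane integrity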
[14] = test system: HEK293; test: optical interference in Abeta FP readout, dose response, artefact control for IDE activator project, biochemical, fluorescence polarization (AID 588442); format: functional, cell-based; settings: Homo sapiens
[15] = Vero cell cytotoxicity, dose response, cytotoxicity control for M. tuberculosis growth inhibitor project, Vero cells, purified and synthesized compounds, set 5 (AID 504909); format: functional; settings: Mycobacterium tuberculosis
[16] = A Cell Based Secondary Assay to Explore Cytotoxicity in THP-1 Cells of Compounds that Modulate Mycobacterium tuberculosis in Media Containing Glycerol versus Media without Glycerol (2).; format: functional
[17] = Vero cell cytotoxicity, cytotoxicity control for M. tuberculosis inhibitor project, purified and synthesized samples, set 3 (AID 504684); format: functional
[18] = THP-1 cell cytotoxicity, cytotoxicity control, set 4 (AID 504911); format: functional; settings: Mycobacterium tuberculosis
[19] = A Cell Based Secondary Assay to Explore Cytotoxicity in HepG2 Cells of Compounds that Modulate Mycobacterium tuberculosis in Media Containing Glycerol versus Media without Glycerol (2).; format: functional
[20] = THP-1 cell cytotoxicity, dose response, cytotoxicity control, set 3 (AID 504852); format: functional; settings: Mycobacterium tuberculosis
[21] = Vero cell cytotoxicity, dose response, cytotoxicity control for M. tuberculosis growth inhibitor project, Vero cells, purified and synthesized compounds, set 4 (AID 504854); format: functional; settings: Mycobacterium tuberculosis
[22] = biological target: Protein disulfide-isomerase (Homo sapiens, UniProt P07237); test: inhibition of PDI-driven insulin aggregation – biochemical, turbidity, absorbance, cherry-picked samples, dose response (AID 602350); format: functional
[23] = biological target: Multidrug resistance protein CDR1 (Candida albicans, UniProt P43071); test: inhibition of Nile Red efflux via Candida CDR1 – S. cerevisiae AD1-8u, singleplex, Cherry Pick1 hits, dose response (AID 588606); format: functional
Chain of Multidrug resistance protein CDR1 (P43071 whole entry, looked up): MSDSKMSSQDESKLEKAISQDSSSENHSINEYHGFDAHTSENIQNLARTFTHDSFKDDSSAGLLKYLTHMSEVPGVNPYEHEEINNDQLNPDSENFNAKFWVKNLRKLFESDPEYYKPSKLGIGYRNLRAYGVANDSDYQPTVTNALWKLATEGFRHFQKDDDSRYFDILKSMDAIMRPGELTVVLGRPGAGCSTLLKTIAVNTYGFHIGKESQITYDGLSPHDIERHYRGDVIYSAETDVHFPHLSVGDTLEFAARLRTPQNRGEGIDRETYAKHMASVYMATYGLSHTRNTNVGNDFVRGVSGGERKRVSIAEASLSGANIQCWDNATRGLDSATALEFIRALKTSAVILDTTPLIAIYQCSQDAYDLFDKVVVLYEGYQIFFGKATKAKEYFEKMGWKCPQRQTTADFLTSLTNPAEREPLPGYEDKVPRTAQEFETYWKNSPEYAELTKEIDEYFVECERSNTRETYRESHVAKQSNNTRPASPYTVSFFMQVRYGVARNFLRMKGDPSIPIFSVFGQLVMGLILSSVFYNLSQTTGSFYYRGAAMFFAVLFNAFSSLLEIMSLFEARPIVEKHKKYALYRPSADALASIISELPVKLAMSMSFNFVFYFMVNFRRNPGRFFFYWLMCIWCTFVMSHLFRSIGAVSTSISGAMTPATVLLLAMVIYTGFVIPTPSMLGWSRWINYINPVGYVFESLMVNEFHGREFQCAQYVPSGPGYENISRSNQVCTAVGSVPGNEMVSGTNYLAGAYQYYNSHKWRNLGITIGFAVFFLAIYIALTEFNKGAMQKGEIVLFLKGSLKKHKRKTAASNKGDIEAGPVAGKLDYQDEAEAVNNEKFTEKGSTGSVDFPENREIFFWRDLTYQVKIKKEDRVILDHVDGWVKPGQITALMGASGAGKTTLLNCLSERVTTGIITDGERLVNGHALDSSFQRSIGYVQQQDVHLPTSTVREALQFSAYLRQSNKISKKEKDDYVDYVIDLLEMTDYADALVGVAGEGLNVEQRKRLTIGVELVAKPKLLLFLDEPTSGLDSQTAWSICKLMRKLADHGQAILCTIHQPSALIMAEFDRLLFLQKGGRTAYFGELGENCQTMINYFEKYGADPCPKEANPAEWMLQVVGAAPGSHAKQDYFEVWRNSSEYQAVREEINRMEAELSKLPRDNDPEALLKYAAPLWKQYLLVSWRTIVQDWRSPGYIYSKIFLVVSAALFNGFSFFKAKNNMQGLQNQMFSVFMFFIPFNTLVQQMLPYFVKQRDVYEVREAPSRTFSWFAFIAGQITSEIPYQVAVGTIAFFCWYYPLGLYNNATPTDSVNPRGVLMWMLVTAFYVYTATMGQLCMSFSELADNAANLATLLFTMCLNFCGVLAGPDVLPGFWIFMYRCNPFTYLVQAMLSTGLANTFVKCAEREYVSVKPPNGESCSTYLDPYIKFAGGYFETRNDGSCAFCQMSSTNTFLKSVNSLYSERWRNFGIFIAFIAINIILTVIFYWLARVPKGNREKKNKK

T5 sequence (P14735 whole entry): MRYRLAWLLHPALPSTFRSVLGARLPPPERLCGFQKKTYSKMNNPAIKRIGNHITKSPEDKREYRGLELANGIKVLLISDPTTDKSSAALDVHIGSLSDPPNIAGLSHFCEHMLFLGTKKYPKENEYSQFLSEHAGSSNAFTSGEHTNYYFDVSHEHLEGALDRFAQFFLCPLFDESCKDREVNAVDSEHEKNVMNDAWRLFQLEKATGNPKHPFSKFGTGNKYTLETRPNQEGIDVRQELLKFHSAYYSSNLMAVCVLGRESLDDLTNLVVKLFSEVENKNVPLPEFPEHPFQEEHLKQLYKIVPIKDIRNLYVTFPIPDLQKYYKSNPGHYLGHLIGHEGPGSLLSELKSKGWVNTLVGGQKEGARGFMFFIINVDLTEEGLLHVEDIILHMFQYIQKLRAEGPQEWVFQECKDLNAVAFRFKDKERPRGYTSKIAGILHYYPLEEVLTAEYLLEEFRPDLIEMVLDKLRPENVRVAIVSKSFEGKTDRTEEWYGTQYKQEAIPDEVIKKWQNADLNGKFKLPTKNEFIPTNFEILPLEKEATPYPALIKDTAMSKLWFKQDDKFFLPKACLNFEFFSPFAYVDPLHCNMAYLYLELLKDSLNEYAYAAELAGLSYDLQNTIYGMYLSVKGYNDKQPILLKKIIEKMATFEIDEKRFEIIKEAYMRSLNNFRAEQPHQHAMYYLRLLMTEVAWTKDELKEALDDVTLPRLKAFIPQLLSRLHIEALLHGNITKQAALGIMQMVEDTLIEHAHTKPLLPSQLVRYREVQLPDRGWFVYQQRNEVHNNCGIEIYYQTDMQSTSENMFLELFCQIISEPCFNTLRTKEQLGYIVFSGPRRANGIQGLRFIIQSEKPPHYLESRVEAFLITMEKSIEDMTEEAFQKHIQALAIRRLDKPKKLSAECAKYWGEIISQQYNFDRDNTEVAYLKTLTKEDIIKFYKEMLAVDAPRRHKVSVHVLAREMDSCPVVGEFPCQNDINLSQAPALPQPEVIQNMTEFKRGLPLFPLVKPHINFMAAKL
Chain of Melanocortin receptor 4 (P32245 whole entry): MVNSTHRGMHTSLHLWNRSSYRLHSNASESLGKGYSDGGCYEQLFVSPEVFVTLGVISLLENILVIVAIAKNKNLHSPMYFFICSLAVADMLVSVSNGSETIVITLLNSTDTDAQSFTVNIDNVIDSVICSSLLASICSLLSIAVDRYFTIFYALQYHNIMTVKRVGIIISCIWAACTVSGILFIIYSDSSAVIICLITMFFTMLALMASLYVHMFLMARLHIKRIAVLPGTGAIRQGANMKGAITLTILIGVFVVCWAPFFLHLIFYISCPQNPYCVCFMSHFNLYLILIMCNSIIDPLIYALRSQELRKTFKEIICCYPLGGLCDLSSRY
Chain of Protein disulfide-isomerase (P07237 whole entry): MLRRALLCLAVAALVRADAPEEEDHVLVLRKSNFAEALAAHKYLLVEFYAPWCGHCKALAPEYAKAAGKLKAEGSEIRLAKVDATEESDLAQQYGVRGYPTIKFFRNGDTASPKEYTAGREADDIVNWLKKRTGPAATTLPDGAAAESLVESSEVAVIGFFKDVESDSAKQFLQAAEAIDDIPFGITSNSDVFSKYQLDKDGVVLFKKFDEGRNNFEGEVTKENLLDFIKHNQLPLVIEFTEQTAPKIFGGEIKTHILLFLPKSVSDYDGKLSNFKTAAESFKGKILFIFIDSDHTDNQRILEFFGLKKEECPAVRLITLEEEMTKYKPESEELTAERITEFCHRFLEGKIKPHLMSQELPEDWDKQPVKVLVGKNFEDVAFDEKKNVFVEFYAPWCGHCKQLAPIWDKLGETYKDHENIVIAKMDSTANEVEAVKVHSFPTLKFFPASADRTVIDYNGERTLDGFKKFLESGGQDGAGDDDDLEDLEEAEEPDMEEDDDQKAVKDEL

## CCC(C)(C)c1ccc2c(c1)C(=O)c1ccccc1C2=O
[1]
  IC50: 2.38 µM (active)
[2]
  IC50: 2.88 µM (active)
[3]
  IC50: 2.05 µM (active)
[4]
  IC50: 1.31 µM (active)

## N#Cc1c(N2CCN(C(=O)c3ccco3)CC2)nc(-c2ccccc2)c2c1CCCC2
[5]
  EC50: 2.31 µM (active)
[6]
  EC50: > 60 µM (not active)
[7]
  IC50: > 64.6 µM (inactive)
[8]
  IC50: > 64.6 µM (inactive)

## COc1ccc(NC(=O)C2CCN(S(=O)(=O)c3ccc4c(c3)CC(C)N4C(C)=O)CC2)cc1OC (stereo not drawn)
[9]
  EC50: > 350 µM (not active)
[10]
  EC50: > 350 µM (not active)
[11]
  EC50: > 54.7 µM (inactive)
[12]
  EC50: > 54.7 µM (inactive)
[13]
  IC50: > 89.2 µM (inactive)
[14]
  EC50: > 54.7 µM (inactive)

## COC(=O)C(Nc1nc(SCC(=O)NC2CCCCC2)nc2ccccc12)c1ccccc1 (stereo not drawn)
[15]
  CC50: > 100 µM (active)
[16]
  CC50: 70.9 µM (active)
[17]
  CC50: 73.2 µM (active)
[18]
  CC50: 129 µM (active)
[19]
  CC50: > 50 µM (active)
[20]
  CC50: 41.1 µM (active)
[21]
  CC50: 66 µM (active)

## C[C@@H]1CN([C@@H](C)CO)C(=O)c2cc(NC(=O)Cc3cn(C)c4ccccc34)ccc2O[C@H]1CN(C)S(=O)(=O)c1ccc(F)cc1
[22]
  AC50: 2.08 µM (active)

## CCSc1cc(N2CCOCC2)nc(-c2ccccc2)n1
[23]
  EC50: 0.016 µM (active)

From ChEMBL document CHEMBL1201862, “PubChem BioAssay data set” (2004)
